The NIST ThermoML archive (doi:10.1016/j.fluid.2012.01.014)

Legend:
[1] = Ring tensiometer
[2] = cn = amount concentration of the nth substance listed, in mol/dm3; settings: Ring tensiometer

O [water]
[1]
Settings | surface tension liquid-gas [mN/m]
293 K | 72.8
303 K | 71.2
313 K | 69.6

CCCCCCCCCCCC[N+](C)(C)Cc1ccccc1.[Br-] [benzenemethanaminium, N-dodecyl-N,N-dimethyl, bromide] + O
surface tension liquid-gas [mN/m], [2]
Settings | 293 K | 303 K | 313 K
c1 = 1e-07 | 72.4 | 71.18 | 69.58
c1 = 5.01e-07 | 72.3 | 71.09 | 69.49
c1 = 1e-06 | 71.6 | 70.98 | 69.38
c1 = 5.01e-06 | 70.7 | 70.22 | 68.59
c1 = 1e-05 | 69.6 | 69.44 | 67.78
c1 = 5.01e-05 | 66.8 | 65.88 | 64.1
c1 = 0.0001 | 64.3 | 63.66 | 61.81
c1 = 0.000316 | 55.3 | 54.19 | 53.4
c1 = 0.000501 | 51.7 | 50.07 | 49.15
c1 = 0.001 | 46.2 | 44.48 | 43.37
c1 = 0.002 | 41.1 | 40 | 38.93
c1 = 0.00316 | 37.8 | 36.73 | 35.76
c1 = 0.00398 | 36 | 34.82 | 33.92
c1 = 0.00501 | 34.5 | 33.11 | 32.67
c1 = 0.00708 | 34.5 | 33.11 | 32.67
c1 = 0.01 | 34.4 | 33.11 | 32.67

O [water] + CCCCCCCCCCCCCCCC[n+]1ccccc1.[Br-]
[2], c2 = 0
Settings | surface tension liquid-gas [mN/m]
293 K | 72.8
303 K | 71.2
313 K | 69.6

CCCCCCCCCCCC[N+](C)(C)CC.[Br-] [dodecyl ethyl dimethylammonium bromide] + O
surface tension liquid-gas [mN/m], [2]
Settings | 293 K | 303 K | 313 K
c1 = 1e-07 | 72.6 | 71.2 | 69.6
c1 = 5.01e-07 | 72.4 | 71.19 | 69.6
c1 = 1e-06 | 72.3 | 71.19 | 69.59
c1 = 5.01e-06 | 72.2 | 71.13 | 69.56
c1 = 1e-05 | 71.7 | 71.06 | 69.53
c1 = 5.01e-05 | 70.7 | 70.54 | 69.24
c1 = 0.0001 | 70 | 69.94 | 68.89
c1 = 0.000501 | 67.8 | 66.59 | 65.63
c1 = 0.001 | 65.1 | 63.91 | 62.94
c1 = 0.002 | 60.3 | 60.54 | 59.58
c1 = 0.00316 | 56.4 | 56.13 | 55.17
c1 = 0.00398 | 52.4 | 52.36 | 51.87
c1 = 0.00501 | 50 | 49.44 | 48.85
c1 = 0.00631 | 47.3 | 46.78 | 46.39
c1 = 0.00794 | 44.3 | 43.72 | 43.12
c1 = 0.00891 | 42.8 | 42.12 | 41.71
c1 = 0.01 | 41.5 | 40.73 | 39.82
c1 = 0.0251 | 40.9 | 40.01 | 39.43
c1 = 0.0501 | 40.6 | 39.82 | 38.75
c1 = 0.1 | 39.4 | 39 | 38.24

O [water] + CCCCCCCCCCCCOS(=O)(=O)[O-].[Na+]
[2], c2 = 0
Settings | surface tension liquid-gas [mN/m]
293 K | 72.8
303 K | 71.2
313 K | 69.6
